According to patent publication US10195196B2, “1,4-disubstituted pyridazine analogs there of and methods for treating SMN-deficiency-related conditions” (NOVARTIS AG, priority 2012, dated 2019):

Tested on: SMN protein
Test: cellular SMN ELISA (SMN protein elevation)
Assay type: cell-based
Conditions: ELISA condition 2: compound concentration 100 pM-10 uM, myoblast cell line from SMNdelta7 mouse model, 24 hours treatment; for SMN activity Fold: fold activation over DMSO control
Procedure, shortened: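 SMNdelta7 mouse-derived myoblasts were treated with compound for 24 h, then lysed. SMN protein was quantified by sandwich ELISA (HRP/TMB, 450 nm) and reported as fold over DMSO and EC50, over 20 nM–10 μM or 100 pM–10 μM depending on condition.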

Structure (SMILES)	EC50 [nM]	SMN activity Fold [Fold]
CN(c1ccc(-c2cc3c(cc2O)-c2nc(N)sc2C3)nn1)C1CC(C)(C)NC(C)(C)C1 [Example 35-5, 2-amino-6-(6-(methyl(2,2,6,6-tetramethylpiperidin-4-yl)amino)pyridazin-3-yl)-8H-indeno[1,2-d]thiazol-5-ol]	6	2.44
CN(c1ccc(-c2cc3c(cc2O)CCn2cncc2-3)nn1)C1CC(C)(C)NC(C)(C)C1 [Example 35-6, 9-(6-(methyl(2,2,6,6-tetramethylpiperidin-4-yl)amino)pyridazin-3-yl)-5,6-dihydroimidazo[5,1-a]isoquinolin-8-ol]	51	2.21
CN(c1ccc(-c2cc(C(=O)NCc3cnn(C)c3)ccc2O)nn1)C1CC(C)(C)NC(C)(C)C1 [Example 36-1, 4-hydroxy-3-(6-(methyl(2,2,6,6-tetramethylpiperidin-4-yl)amino)pyridazin-3-yl)-N-((1-methyl-1H-pyrazol-4-yl)methyl)benzamide]	652	2.04
CN(c1ccc(-c2cc(-n3cc(CO)cn3)ccc2O)nn1)C1CC(C)(C)NC(C)(C)C1 [Example 37-1, 4-(4-(hydroxymethyl)-1H-pyrazol-1-yl)-2-(6-(methyl(2,2,6,6-tetramethylpiperidin-4-yl)amino)pyridazin-3-yl)phenol]	118	2.59
CN(c1ccc(-c2ccc3cnc(OCc4ccccc4)cc3c2)nn1)C1CC(C)(C)NC(C)(C)C1 [Example 39-1, 6-(3-(benzyloxy)isoquinolin-6-yl)-N-methyl-N-(2,2,6,6-tetramethylpiperidin-4-yl)pyridazin-3-amine]	1030	2.65
CN(c1ccc(-c2ccc3ccnc(OCc4ccccc4)c3c2)nn1)C1CC(C)(C)NC(C)(C)C1 [Example 39-2, 6-(1-(benzyloxy)isoquinolin-7-yl)-N-methyl-N-(2,2,6,6-tetramethylpiperidin-4-yl)pyridazin-3-amine]	408	3.04
COc1cc(-c2cc(O)c(-c3ccc(N(C)C4CC(C)(C)NC(C)(C)C4)nn3)c(F)c2)ccn1 [Example 40-1, 3-fluoro-5-(2-methoxypyridin-4-yl)-2-(6-(methyl(2,2,6,6-tetramethylpiperidin-4-yl)amino)pyridazin-3-yl)phenol]	79	2.58
CN(c1ccc(-c2c(O)cc(-c3cc[nH]c(=O)c3)cc2F)nn1)C1CC(C)(C)NC(C)(C)C1 [Example 40-2, 4-(3-fluoro-5-hydroxy-4-(6-(methyl(2,2,6,6-tetramethylpiperidin-4-yl)amino)pyridazin-3-yl)phenyl)pyridin-2(1H)-one]	25	2.78
CN(c1ccc(-c2c(O)cc(-c3ccn(C)c(=O)c3)cc2F)nn1)C1CC(C)(C)NC(C)(C)C1 [Example 40-3, 4-(3-fluoro-5-hydroxy-4-(6-(methyl(2,2,6,6-tetramethylpiperidin-4-yl)amino)pyridazin-3-yl)phenyl)-1-methylpyridin-2(1H)-one]	11	3.03
CN(c1ccc(-c2c(O)cc(-c3ccc(=O)n(C)c3)cc2F)nn1)C1CC(C)(C)NC(C)(C)C1 [Example 40-4, 5-(3-fluoro-5-hydroxy-4-(6-(methyl(2,2,6,6-tetramethylpiperidin-4-yl)amino)pyridazin-3-yl)phenyl)-1-methylpyridin-2(1H)-one]	15	2.14
CC1(C)CC(Oc2ccc(-c3c(O)cc(-c4cn[nH]c4)cc3F)nn2)CC(C)(C)N1 [Example 40-5, 3-fluoro-5-(1H-pyrazol-4-yl)-2-(6-((2,2,6,6-tetramethylpiperidin-4-yl)oxy)pyridazin-3-yl)phenol]	17	3.59
CN(c1ccc(-c2c(O)cc(Cl)cc2F)nn1)C1CC(C)(C)NC(C)(C)C1 [Example 40-6, 5-chloro-3-fluoro-2-(6-(methyl(2,2,6,6-tetramethylpiperidin-4-yl)amino)pyridazin-3-yl)phenol]	208	2.16
CN(c1ccc(-c2c(O)cc(-c3cn[nH]c3)cc2F)nn1)C1CC(C)(C)NC(C)(C)C1 [Example 40-7, 3-fluoro-2-(6-(methyl(2,2,6,6-tetramethylpiperidin-4-yl)amino)pyridazin-3-yl)-5-(1H-pyrazol-4-yl)phenol]	4	2.80
CN(c1ccc(-c2c(O)cc(-c3cnn(C)c3)cc2F)nn1)C1CC(C)(C)NC(C)(C)C1 [Example 40-8, 3-fluoro-2-(6-(methyl(2,2,6,6-tetramethylpiperidin-4-yl)amino)pyridazin-3-yl)-5-(1-methyl-1H-pyrazol-4-yl)phenol]	16	3.18
COc1cncc(-c2ccc(-c3ccc(N(C)C4CC(C)(C)NC(C)(C)C4)nn3)c(O)c2)c1 [Example 41-1, 5-(5-methoxypyridin-3-yl)-2-(6-(methyl(2,2,6,6-tetramethylpiperidin-4-yl)amino)pyridazin-3-yl)phenol]	125	2.78
CN(c1ccc(-c2ccc(-c3ccc(O)nc3)cc2O)nn1)C1CC(C)(C)NC(C)(C)C1 [Example 41-2]	50	2.68
CN(c1ccc(-c2ccc(-c3ccnc(O)c3)cc2O)nn1)C1CC(C)(C)NC(C)(C)C1 [Example 41-3]	66	3.10
COc1ccc(-c2ccc(-c3ccc(N(C)C4CC(C)(C)NC(C)(C)C4)nn3)c(O)c2)cn1 [Example 41-4, 5-(6-methoxypyridin-3-yl)-2-(6-(methyl(2,2,6,6-tetramethylpiperidin-4-yl)amino)pyridazin-3-yl)phenol]	80	3.29
CN(c1ccc(-c2ccc(-c3cnc(O)c(C(F)(F)F)c3)cc2O)nn1)C1CC(C)(C)NC(C)(C)C1 [Example 41-5, 5-(3-hydroxy-4-(6-(methyl(2,2,6,6-tetramethylpiperidin-4-yl)amino)pyridazin-3-yl)phenyl)-3-(trifluoromethyl)pyridin-2-ol]	175	2.88
CN(c1ccc(-c2ccc(-c3ccc(=O)n(C)c3)cc2O)nn1)C1CC(C)(C)NC(C)(C)C1 [Example 41-6, 5-(3-hydroxy-4-(6-(methyl(2,2,6,6-tetramethylpiperidin-4-yl)amino)pyridazin-3-yl)phenyl)-1-methylpyridin-2(1H)-one]	10	2.67
CN(c1ccc(-c2ccc(-c3ccn(C)c(=O)c3)cc2O)nn1)C1CC(C)(C)NC(C)(C)C1 [Example 41-7, 4-(3-hydroxy-4-(6-(methyl(2,2,6,6-tetramethylpiperidin-4-yl)amino)pyridazin-3-yl)phenyl)-1-methylpyridin-2(1H)-one]	7	2.87
COc1cc(-c2ccc(-c3ccc(N(C)C4CC(C)(C)NC(C)(C)C4)nn3)c(O)c2)ccn1 [Example 41-8, 5-(2-methoxypyridin-4-yl)-2-(6-(methyl(2,2,6,6-tetramethylpiperidin-4-yl)amino)pyridazin-3-yl)phenol]	62	3.18
CC1(C)CC(Oc2ccc(-c3ccc(-c4ccnc(O)c4)cc3O)nn2)CC(C)(C)N1 [Example 41-9, 4-(3-hydroxy-4-(6-((2,2,6,6-tetramethylpiperidin-4-yl)oxy)pyridazin-3-yl)phenyl)pyridin-2-ol]	72	4.2
CN(C)c1ccc(-c2ccc(-c3ccc(N(C)C4CC(C)(C)NC(C)(C)C4)nn3)c(O)c2)cn1 [Example 41-10, 5-(6-(dimethylamino)pyridin-3-yl)-2-(6-(methyl(2,2,6,6-tetramethylpiperidin-4-yl)amino)pyridazin-3-yl)phenol]	59	2.80
Cn1ccc(-c2ccc(-c3ccc(OC4CC(C)(C)NC(C)(C)C4)nn3)c(O)c2)cc1=O [Example 41-11, 4-(3-hydroxy-4-(6-((2,2,6,6-tetramethylpiperidin-4-yl)oxy)pyridazin-3-yl)phenyl)-1-methylpyridin-2(1H)-one]	12	2.78
CN(c1ccc(-c2ccc(-c3cncnc3)cc2O)nn1)C1CC(C)(C)NC(C)(C)C1 [Example 41-12, 2-(6-(methyl(2,2,6,6-tetramethylpiperidin-4-yl)amino)pyridazin-3-yl)-5-(pyrimidin-5-yl)phenol]	103	2.92
CN(c1ccc(-c2ccc(-c3cncc(O)c3)cc2O)nn1)C1CC(C)(C)NC(C)(C)C1 [Example 41-13, 5-(3-hydroxy-4-(6-(methyl(2,2,6,6-tetramethylpiperidin-4-yl)amino)pyridazin-3-yl)phenyl)pyridin-3-ol]	308	3.50
CN(c1ccc(-c2ccc(-c3ccn(C4CC4)c(=O)c3)cc2O)nn1)C1CC(C)(C)NC(C)(C)C1 [Example 41-14, 1-cyclopropyl-4-(3-hydroxy-4-(6-(methyl(2,2,6,6-tetramethylpiperidin-4-yl)amino)pyridazin-3-yl)phenyl)pyridin-2(1H)-one]	84	3.21
CN(c1ccc(-c2ccc(C3=CCNCC3)cc2O)nn1)C1CC(C)(C)NC(C)(C)C1 [Example 41-15, 2-(6-(methyl(2,2,6,6-tetramethylpiperidin-4-yl)amino)pyridazin-3-yl)-5-(1,2,3,6-tetrahydropyridin-4-yl)phenol]	145	2.56
CN(c1ccc(-c2ccc(C3=CCCC3)cc2O)nn1)C1CC(C)(C)NC(C)(C)C1 [Example 41-16, 5-(cyclopent-1-en-1-yl)-2-(6-(methyl(2,2,6,6-tetramethylpiperidin-4-yl)amino)pyridazin-3-yl)phenol]	62	2.30
